# Reference: PubChem BioAssay (NCI)
# Values joined by “and” are separate entries in the source; they are usually repeats but may differ in a detail not shown here. Equal values may be shown once.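 Values below derive from 48-hour exposures of cells grown in 96-well plates, with endpoints linearly interpolated between the two concentrations bracketing the appropriate inhibition level. GI50 is the concentration that inhibits growth by half. TGI: concentration producing complete growth inhibition.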
# Columns and labels:
# Assay in all cases: growth of human tumour cells (NCI), 48 h
# SNB-75 CNS = system: SNB-75 CNS
# SF-539 CNS = system: SF-539 CNS
# SN12C renal = system: SN12C renal
# OVCAR-8 ovarian = system: OVCAR-8 ovarian
# LOX IMVI melanoma = system: LOX IMVI melanoma
# HOP-92 NSCLC = system: HOP-92 NSCLC
# NCI-H23 lung = system: NCI-H23 lung
# TK-10 renal = system: TK-10 renal
# RPMI-8226 leukemia = system: RPMI-8226 leukemia
# HS 578T breast = system: HS 578T breast
# OVCAR-3 ovarian = system: OVCAR-3 ovarian
Compound,GI50 (SNB-75 CNS),TGI (SNB-75 CNS),TGI (SF-539 CNS),TGI (SN12C renal) [µM],GI50 (OVCAR-8 ovarian) [µM],TGI (OVCAR-8 ovarian) [µM],TGI (LOX IMVI melanoma) [µM],TGI (HOP-92 NSCLC),TGI (NCI-H23 lung) [µM],TGI (TK-10 renal) [µM],TGI (RPMI-8226 leukemia) [µM],GI50 (HS 578T breast),TGI (HS 578T breast) [µM],TGI (OVCAR-3 ovarian) [µM],GI50 (SF-539 CNS),GI50 (HOP-92 NSCLC),GI50 (NCI-H23 lung),GI50 (RPMI-8226 leukemia),GI50 (OVCAR-3 ovarian),GI50 (LOX IMVI melanoma)
COc1c2occc2cc2ccc(=O)oc12,55.1 µM,> 100 µM,> 100 µM,> 100,> 100,> 100,> 100,> 100 µM,> 100,> 100,> 100,> 100 µM,> 100,> 100,–,–,–,–,–,–
Cc1c(C#N)c(N)n(C2OC(CO)C(O)C(O)C2O)c(=S)c1C#N (stereo unspecified),–,> 100 µM,> 100 µM,> 100,–,> 100,> 100,> 100 µM,> 100,> 100,> 100,–,> 100,> 100,–,–,–,–,–,–
CCSc1nc(C)nc2c1sc1nc3ccccc3n12,–,> 100 µM,> 100 µM,> 100,–,> 100,> 100,> 100 µM,> 100,> 100,> 100,–,92.9,> 100,–,–,–,–,–,–
Cc1nn(C(=O)c2ccncc2)c2c1C(c1ccc([N+](=O)[O-])cc1)SC(N)=N2 (stereo unspecified),–,> 100 µM,> 100 µM,> 100,–,> 100,> 100,> 100 µM,> 100,> 100,> 100,–,> 100,> 100,–,–,–,–,–,–
C=C(C)C1CC2=C(O1)C(=O)c1cccc(O)c1C2=O (stereo unspecified),–,3.87 µM,1.89 µM,2.44,–,1.81,> 22.8,11.5 µM,0.935,5.37,1.22,–,5.34,0.924,–,–,–,–,–,–
COC(=O)C1(Cc2ccc(C)cc2)Cc2c(C)cccc2C1=O (stereo unspecified),–,> 100 µM,34.5 µM,43.4,–,> 100,38.6,43.9 µM,> 100,86.2,40.6,–,46.9,34.5,–,–,–,–,–,–
CC(C)(C)OC(=O)N1CCC(NC(=O)NC2CCN(C(=O)OC(C)(C)C)CC2)CC1,–,> 100 µM,> 100 µM,> 100,–,> 100,> 100,> 100 µM,> 100,> 100,> 100,–,> 100,> 100,–,–,–,–,–,–
CC(C)(C)C(=O)CC(=O)C(F)(F)C(F)(F)C(F)(F)F.[Ag],–,34.6 µM,57.6 µM,27.6,–,49.4,14.5,40.2 µM,33.1,32.1,44.5,–,63.8,27.7,–,–,–,–,–,–
CNC(=O)OCC1=C(COC(=O)NC)C(C)N(c2ccccc2)C1 (stereo unspecified),–,94.5 µM,67.3 µM,> 100,–,> 100,> 100,> 100 µM,> 100,> 100,83,–,> 100,92.7,–,–,–,–,–,–
COc1ccc(-c2nc(SC)n(C3OC(COC(C)=O)C(OC(C)=O)C(OC(C)=O)C3OC(C)=O)c(=O)c2C#N)cc1 (stereo unspecified),22.8 µM and 65.6 µM,57.9 µM and > 100 µM,81.9 µM and > 100 µM,> 100,–,> 100,> 100,52.9 µM and > 100 µM,> 100,> 100,> 100,–,> 100,> 100,31.3 µM and > 100 µM,14.1 µM and 39.2 µM,35.7 µM and > 100 µM,47.4 µM and > 100 µM,38.2 µM and > 100 µM,–
C[C@H](CO)C1=CC(C#C[Si](C)(C)C)N(C(=O)Oc2ccccc2)c2ccccc21 (stereo partly specified),–,23 µM,33.9 µM,25.5,–,42.9,33.5,28.7 µM,15.1,31.4,> 100,–,26.4,13.5,–,–,–,–,–,–
COC(=O)/C=C/c1cnc2c(c1)oc(=O)n2C,–,> 100 µM,> 100 µM,> 100,–,> 100,> 100,> 100 µM,> 100,> 100,> 100,–,> 100,> 100,–,–,–,–,–,–
Cn1c(O)c(C=Nc2ccc(Cl)cc2Cl)c(=O)n(C)c1=O,–,> 100 µM,> 100 µM,> 100,–,> 100,> 100,> 100 µM,> 100,> 100,> 100,–,> 100,> 100,–,–,–,–,–,–
COc1ccc(C(=O)N(Cc2cccnc2)C(=S)N(Cc2cccnc2)C(=O)c2ccc(OC)cc2)cc1,–,42.9 µM,> 100 µM,> 100,–,> 100,> 100,> 100 µM,> 100,> 100,> 100,–,> 100,> 100,–,–,–,–,–,–
COc1ccc2c(c1)c(=O)c1c(NCCCN(C)C)ccc3ncn2c31,–,19.8 µM,17 µM,18.9,–,9.4,4.86,19.5 µM,21,20.1,> 27.7,–,29.3,26.7,–,–,–,–,–,–
NC(Cc1ccc(O)cn1)C(=O)O (stereo unspecified),–,> 100 µM,> 100 µM,> 100,–,> 100,> 100,> 100 µM,> 100,> 100,> 100,–,> 100,> 100,–,–,–,–,–,–
CC1OC(OC2C[C@](O)(C(=O)CBr)Cc3c(O)c4c(c(O)c32)C(=O)c2ccccc2C4=O)C(F)C(O)C1O (stereo partly specified),–,56.2 µM,30.4 µM,> 73.3,–,> 100,35.8,40.6 µM,36.2,> 87.4,17.7,–,> 73.4,42.9,–,–,–,–,–,–
N[C@@H](Cc1ccc2oc3cc(=O)c4ccccc4c-3nc2c1)C(=O)O,–,> 100 µM,> 100 µM,> 100,–,> 100,> 100,> 100 µM,51.3,> 100,> 100,–,> 100,> 100,–,–,–,–,–,–
COC(=O)C1SC[C@H]2C(=O)N(c3ccccc3)C(=O)N12 (stereo partly specified),–,> 100 µM,> 100 µM,> 100,–,> 100,> 100,> 100 µM,> 100,> 100,> 100,–,> 100,> 100,–,–,–,–,–,–
COC1C(OC(C)=O)CC(=O)OC(C)C/C=C/C=C\C(O)C(C)CC(CC=O)C1OC1OC(C)C(OC2CC(C)(O)C(OC(=O)CC(C)C)C(C)O2)C(N(C)C)C1O (stereo unspecified),–,> 100 µM,> 100 µM,> 100,–,> 100,> 100,> 100 µM,> 100,> 100,> 100,> 100 µM and 42 µM,> 100,> 100,–,–,–,–,–,41.4 µM and > 100 µM
